The source of these data is patent EP0338532A2, “N-alkylamino derivates of aromatic, tricyclic compounds in the treatment of drug-resistant protozoal infections” (priority 1988, dated 1989).

In one series the test system is P. falciparum (FCR3). Kind of series: [3H]-hypoxanthine incorporation, parasite growth inhibition (chloroquine-resistant strain FCR3). The format is cell-based, Plasmodium falciparum. On the procedure:
P. falciparum (clone D6, chloroquine-sensitive; strain FCR3, chloroquine-resistant; and clone W2, multidrug-resistant) was grown in vitro by the method of Trager and Jensen, (1976) Science 193, 673-675. • Figure 1 illustrates the effect of desipramine on the inhibition of parasite growth. […] Isobologram analysis was carried out according to the method of Martin, et al., (1987) Science 235, 899-901 and Berenbaum, (1978) Journal of Infectious Diseases 137, 122-130. […] The X-axis is the IC₅₀ (concentration of drug which inhibits hypoxanthine incorporation by 50%) of chloroquine in the absence or presence of desipramine while the Y-axis is the IC₅₀ for desipramine in the absence or presence of chloroquine. […] Dose-response curves and IC₅₀'s for chloroquine were determined either in the absence of desipramine or in the presence of a fixed concentration of desipramine ranging from 50 ng desipramine/ml up to 500 ng desipramine/ml. […] Clinically achievable plasma concentrations of desipramine in depressed patients are in the range of 50 - 200 ng/ml. Desipramine (500 ng/ml) lowered the IC₅₀ and IC₉₀ for chloroquine by 10-fold. An IC₅₀ for a chloroquine-sensitive P. falciparum strain would be approximately 5 ng/ml. Therefore in the presence of clinically relevant concentrations of desipramine, the chloroquine-resistant P. falciparum strain is as sensitive to chloroquine as is the "sensitive" strain. • Figure 4 illustrates the ability of desipramine to enhance the potency of chloroquine against P. falciparum (W2). The experiment is identical to that of Figure 3 but a different strain of P. falciparum was used. […] The IC₅₀ and IC₉₀ for chloroquine are lowered by a factor of approximately 10. […] The anti-psycotic, chloropromazine, was substituted for desipramine in an experiment similar to that in Figure 2. • Figure 7. […] Uptake of [3H]-chloroquine was followed in clone D6 (chloroquine susceptible, ·) and in clone W2 (multidrug-resistant, o) in the absence or presence of desipramine.

The subject of series [1] is chloroquine-susceptible clone D6 of P. falciparum. Kind of series: [3H]-hypoxanthine incorporation, parasite growth inhibition (chloroquine-susceptible clone D6). The settings on record: Figure 5, experiment similar to Figures 3 and 4. The format is cell-based, Plasmodium falciparum. The method, then:
(§1) P. falciparum (clone D6, chloroquine-sensitive; strain FCR3, chloroquine-resistant; and clone W2, multidrug-resistant) was grown in vitro by the method of Trager and Jensen, (1976) Science 193, 673-675. • Figure 1 illustrates the effect of desipramine on the inhibition of parasite growth. […] Isobologram analysis was carried out according to the method of Martin, et al., (1987) Science 235, 899-901 and Berenbaum, (1978) Journal of Infectious Diseases 137, 122-130. […] The X-axis is the IC₅₀ (concentration of drug which inhibits hypoxanthine incorporation by 50%) of chloroquine in the absence or presence of desipramine while the Y-axis is the IC₅₀ for desipramine in the absence or presence of chloroquine. […] Dose-response curves and IC₅₀'s for chloroquine were determined either in the absence of desipramine or in the presence of a fixed concentration of desipramine ranging from 50 ng desipramine/ml up to 500 ng desipramine/ml. […] Clinically achievable plasma concentrations of desipramine in depressed patients are in the range of 50 - 200 ng/ml. Desipramine (500 ng/ml) lowered the IC₅₀ and IC₉₀ for chloroquine by 10-fold. An IC₅₀ for a chloroquine-sensitive P. falciparum strain would be approximately 5 ng/ml. […]

The conditions of series [2]: depressed patients; cited from earlier work.
For a further series, the system named is P. falciparum (W2). The format is cell-based, Plasmodium falciparum. The method, then: as §1
The test system of series [3] is clone W2 (multidrug-resistant). The series can be described thus: Uptake of [3H]-chloroquine by parasites (clone W2). The format is cell-based, P. falciparum. As to conditions: Figure 7; drug-resistant parasites, presence vs absence of desipramine. On the procedure:
as §1

Series [4] has as its system chloroquine-sensitive P. falciparum strain. The settings on record: stated as 'would be approximately'; cited from earlier work.
[5] abbreviates: Figure 3, desipramine 500 ng/ml, FCR3.

Consider `CN(C)CCCN1c2ccccc2Sc2ccc(Cl)cc21` [chloropromazine], for which, in the series with P. falciparum (FCR3) (Figure 6, experiment similar to Figure 2, combination with chloroquine), the “synergism of chloropromazine and chloroquine (isobologram)” value is given as “synergism”.

For `CNCCCN1c2ccccc2CCc2ccccc21` [desipramine, Desipramine], the “change of the response to chloroquine” value in series [1] is reported as “does not change the response”. Also, the “Clinically achievable plasma concentrations” value in series [2] was 50 to 200 ng/mL. Moreover, in the series with P. falciparum (FCR3) (setting [5]), the “lowering of the IC50 for chloroquine” value was determined as 10 fold and the “lowering of the IC90 for chloroquine” value is on record as 10 fold. For the same molecule, the “effects on P. falciparum when desipramine was added alone” value with P. falciparum (W2) (Figure 4, at the desipramine concentrations used, without chloroquine) is listed as “only slight effects”. In addition, the “sensitivity of the strain to desipramine” value in the series on P. falciparum (W2) (W2 compared with FCR3) is listed as “more sensitive”. For the same molecule, the “accumulation of chloroquine by parasites” value in series [3] is listed as “increases the accumulation of chloroquine”.

In the case of `CCN(CC)CCCC(C)Nc1ccnc2cc(Cl)ccc12` (stereo not drawn) [chloroquine], the IC50 result in series [4] is “approximately 5 ng/ml”.
